Results as given in ChEMBL document CHEMBL1201862, “PubChem BioAssay data set” (2004).
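Grown in 96-well plates, cells were treated for 48 hours with each compound at five concentrations. Insufficient inhibition: endpoint recorded as highest concentration tested. At the GI50, growth is halved.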 The source made the active and inactive calls. Rule as the data show it: active = GI50 up to about 1.1 µM and inactive = higher.

Tests used:
Assay in all cases: DTP human tumour cell line panel, 48 h
SNB-75 = test system: SNB-75
OVCAR-5 = test system: OVCAR-5
UACC-257 = test system: UACC-257
UACC-62 = test system: UACC-62
T47D = test system: T47D
KM12 = test system: KM12
NCI-H226 = test system: NCI-H226
HT-29 = test system: HT-29
SK-MEL-5 = test system: SK-MEL-5
MCF7 = test system: MCF7
NCI/ADR-RES = test system: NCI/ADR-RES
HOP-62 = test system: HOP-62
NCI-H23 = test system: NCI-H23
OVCAR-3 = test system: OVCAR-3
MDA-MB-231 = test system: MDA-MB-231
SN12C = test system: SN12C
MOLT-4 = test system: MOLT-4
MDA-N = test system: MDA-N
COLO 205 = test system: COLO 205
DU-145 = test system: DU-145
K562 = test system: K562
M14 = test system: M14
SK-MEL-28 = test system: SK-MEL-28
MDA-MB-435 = test system: MDA-MB-435
HCC 2998 = test system: HCC 2998
SF-268 = test system: SF-268
OVCAR-4 = test system: OVCAR-4
A549 = test system: A549
CAKI-1 = test system: CAKI-1
ACHN = test system: ACHN
Hs-578T = test system: Hs-578T
LOX IMVI = test system: LOX IMVI
IGROV-1 = test system: IGROV-1
A498 = test system: A498
SR = test system: SR
RPMI-8226 = test system: RPMI-8226
UO-31 = test system: UO-31
SF-295 = test system: SF-295
OVCAR-8 = test system: OVCAR-8
BT-549 = test system: BT-549
HOP-92 = test system: HOP-92
NCI-H522 = test system: NCI-H522
HL-60 = test system: HL-60
SNB-19 = test system: SNB-19
TK-10 = test system: TK-10
PC-3 = test system: PC-3
HCT-116 = test system: HCT-116
CCRF-CEM = test system: CCRF-CEM
786-0 = test system: 786-0
NCI-H460 = test system: NCI-H460
HCT-15 = test system: HCT-15
SK-MEL-2 = test system: SK-MEL-2
Malme-3M = test system: Malme-3M
SW-620 = test system: SW-620
U-251 = test system: U-251
SF-539 = test system: SF-539
EKVX = test system: EKVX
RXF 393 = test system: RXF 393
SK-OV-3 = test system: SK-OV-3

## CC(NC(=O)OCc1ccccc1)NC(=O)OC(C)(C)C (stereo unspecified)
SNB-75
  GI50: > 100 µM (inactive)
OVCAR-5
  GI50: > 100 µM (inactive)
UACC-257
  GI50: > 100 µM (inactive)
UACC-62
  GI50: > 100 µM (inactive)
T47D
  GI50: > 100 µM (inactive)
KM12
  GI50: > 100 µM (inactive)
NCI-H226
  GI50: > 100 µM (inactive)
HT-29
  GI50: > 100 µM (inactive)
SK-MEL-5
  GI50: > 100 µM (inactive)
MCF7
  GI50: > 100 µM (inactive)
NCI/ADR-RES
  GI50: > 100 µM (inactive)
HOP-62
  GI50: > 100 µM (inactive)
NCI-H23
  GI50: > 100 µM (inactive)
OVCAR-3
  GI50: > 100 µM (inactive)
MDA-MB-231
  GI50: > 100 µM (inactive)
SN12C
  GI50: > 100 µM (inactive)
MOLT-4
  GI50: 84.9 µM (inactive)
MDA-N
  GI50: > 100 µM (inactive)
COLO 205
  GI50: > 100 µM (inactive)
DU-145
  GI50: > 100 µM (inactive)
K562
  GI50: > 100 µM (inactive)
M14
  GI50: > 100 µM (inactive)
SK-MEL-28
  GI50: > 100 µM (inactive)
MDA-MB-435
  GI50: > 100 µM (inactive)
HCC 2998
  GI50: > 100 µM (inactive)
SF-268
  GI50: > 100 µM (inactive)
OVCAR-4
  GI50: > 100 µM (inactive)
A549
  GI50: > 100 µM (inactive)
CAKI-1
  GI50: > 100 µM (inactive)
ACHN
  GI50: > 100 µM (inactive)
Hs-578T
  GI50: > 100 µM (inactive)
LOX IMVI
  GI50: > 100 µM (inactive)
IGROV-1
  GI50: > 100 µM (inactive)
A498
  GI50: > 100 µM (inactive)
SR
  GI50: > 100 µM (inactive)
RPMI-8226
  GI50: 51.6 µM (inactive)
UO-31
  GI50: > 100 µM (inactive)
SF-295
  GI50: > 100 µM (inactive)
OVCAR-8
  GI50: > 100 µM (inactive)
BT-549
  GI50: > 100 µM (inactive)
HOP-92
  GI50: > 100 µM (inactive)
NCI-H522
  GI50: > 100 µM (inactive)
HL-60
  GI50: > 100 µM (inactive)
SNB-19
  GI50: > 100 µM (inactive)
TK-10
  GI50: > 100 µM (inactive)
PC-3
  GI50: > 100 µM (inactive)
HCT-116
  GI50: > 100 µM (inactive)
CCRF-CEM
  GI50: > 100 µM (inactive)
786-0
  GI50: > 100 µM (inactive)
NCI-H460
  GI50: 73.6 µM (inactive)
HCT-15
  GI50: > 100 µM
SK-MEL-2
  GI50: > 100 µM (inactive)
Malme-3M
  GI50: > 100 µM (inactive)
SW-620
  GI50: > 100 µM (inactive)
U-251
  GI50: > 100 µM (inactive)
SF-539
  GI50: > 100 µM (inactive)
EKVX
  GI50: > 100 µM (inactive)
RXF 393
  GI50: 1.24 µM (inactive)
SK-OV-3
  GI50: > 100 µM (inactive)

## CC[C@@]1(O)C(=O)OCc2c1cc1n(c2=O)Cc2c-1nc1ccccc1c2CC[Si](C)(C)C [COSITECAN]
SNB-75
  GI50: < 0.01 µM (active)
OVCAR-5
  GI50: 0.0601 µM (active)
UACC-257
  GI50: < 0.0391 µM (active)
UACC-62
  GI50: < 0.01 µM (active)
T47D
  GI50: < 0.01 µM (active)
KM12
  GI50: 0.0367 µM (active)
NCI-H226
  GI50: < 0.01 µM (active)
HT-29
  GI50: < 0.01 µM (active)
SK-MEL-5
  GI50: < 0.01 µM (active)
MCF7
  GI50: < 0.01 µM (active)
NCI/ADR-RES
  GI50: < 0.01 µM (active)
HOP-62
  GI50: < 0.01 µM (active)
NCI-H23
  GI50: < 0.01 µM (active)
OVCAR-3
  GI50: 0.0604 µM (active)
MDA-MB-231
  GI50: 0.417 µM (active)
SN12C
  GI50: < 0.01 µM (active)
MOLT-4
  GI50: < 0.01 µM (active)
MDA-N
  GI50: < 0.01 µM (active)
COLO 205
  GI50: < 0.0383 µM (active)
DU-145
  GI50: < 0.01 µM (active)
K562
  GI50: 0.0101 µM (active)
M14
  GI50: < 0.01 µM (active)
MDA-MB-435
  GI50: < 0.01 µM (active)
HCC 2998
  GI50: < 0.01 µM (active)
SF-268
  GI50: < 0.01 µM (active)
OVCAR-4
  GI50: 0.0998 µM (active)
A549
  GI50: < 0.01 µM (active)
CAKI-1
  GI50: < 0.01 µM (active)
ACHN
  GI50: < 0.01 µM (active)
Hs-578T
  GI50: 7.73 µM (inactive)
LOX IMVI
  GI50: < 0.01 µM (active)
IGROV-1
  GI50: 0.0149 µM (active)
A498
  GI50: < 0.01 µM (active)
SR
  GI50: < 0.01 µM (active)
RPMI-8226
  GI50: < 0.01 µM (active)
UO-31
  GI50: < 0.01 µM (active)
SF-295
  GI50: < 0.01 µM (active)
OVCAR-8
  GI50: < 0.01 µM (active)
BT-549
  GI50: 0.023 µM (active)
HOP-92
  GI50: 0.115 µM (active)
NCI-H522
  GI50: < 0.01 µM (active)
HL-60
  GI50: < 0.01 µM (active)
SNB-19
  GI50: < 0.01 µM (active)
TK-10
  GI50: 0.131 µM (active)
PC-3
  GI50: < 0.0389 µM (active)
HCT-116
  GI50: < 0.01 µM (active)
786-0
  GI50: < 0.01 µM (active)
NCI-H460
  GI50: < 0.01 µM (active)
HCT-15
  GI50: 0.0789 µM
SK-MEL-2
  GI50: 0.053 µM (active)
Malme-3M
  GI50: < 0.01 µM (active)
SW-620
  GI50: 0.0101 µM (active)
U-251
  GI50: < 0.01 µM (active)
SF-539
  GI50: < 0.01 µM (active)
EKVX
  GI50: 0.0671 µM (active)
RXF 393
  GI50: < 0.01 µM (active)
SK-OV-3
  GI50: < 0.01 µM (active)
